As usually defined, the melting point is the temperature, or range, at which the solid turns liquid. Take `O=C1c2ccccc2C(O)(c2ccccc2)N1CCc1ccc(O)cc1` (stereo unspecified): the melting point turned out to be 188 °C.

Compound `c1ccc(-c2nc(-c3ccc(OCCCn4ccnc4)cc3)no2)cc1` displayed a melting point of 132 to 133 °C.

Take `Cc1cc(C)c(CP(Cc2c(C)cc(C)cc2C)Cc2c(C)cc(C)cc2C)c(C)c1`: the melting point lay within 148 to 158 °C.

For the compound `O=[N+]([O-])c1ccc(-c2ccc(-c3ccc([N+](=O)[O-])cc3OCc3ccccc3)o2)c(OCc2ccccc2)c1`, the melting point fell in the range of 233 to 237 °C.

`O=C1C(O)=C(c2ccccc2)C(=O)C(O)=C1/C=C/c1ccccc1` showed a melting point of 259 to 260 °C.

`CCOP(=O)(/C=C/c1cn(-c2ccccc2)nc1OCc1ccc(OCc2nc(-c3ccccc3)cn2C)c(OC)c1)OCC` showed a melting point of 144 to 145 °C.

In the case of `Nc1ccc(N2CCOCC2)c(C(=O)O)c1`, the melting point was 307 to 308 °C.

In the case of `CCc1nc(/C=C\c2cn(-c3ccccc3)nc2OCc2ccc(OCc3csc(N4CCCCC4)n3)c(OC)c2)cs1`, the melting point is 93 to 94 °C.

In turn, `O=C(O)c1ccc(COCc2csc3nc(C(=O)NCc4cccc(Br)c4)[nH]c(=O)c23)cc1` had a melting point of 231 to 233 °C.

On to `CC(C)(C)OC(=O)c1nc2ccc(NCCCN3CCC(OC(c4ccccc4)c4ccccc4)CC3)nn2n1`, for which the melting point fell in the range of 133 to 135 °C.

On to `COc1cccc(-c2c(C(=O)O)c(=O)n(C)c3ncccc23)c1`, for which the melting point lay within 196 to 197 °C.

Take `Cc1cc(C)cc(-c2cnn3c(-c4cccc(C#N)c4)ccnc23)c1`: the melting point turned out to be 147 °C.

`CCc1[nH]c(=O)[nH]c1-c1cc(C(C)(C)C)c(O)c(C(C)(C)C)c1` had a melting point of 267 to 270 °C.

Take `CC(C)(C)c1cc(-c2csc3nc(-c4ccccc4)c(-c4ccccc4)n23)cc(C(C)(C)C)c1O`: the melting point was 237 to 238 °C.

`COc1ccc2[nH]c(C=Cc3ccccc3Cl)cc2c1` showed a melting point of 135 to 137 °C.

Regarding `OCc1cn(-c2ccc(OC(F)(F)F)cc2)cn1`, the melting point was 105 to 106 °C.

Compound `CCCCc1nc(C(=O)CC)c(C#N)n1C(c1ccccc1)(c1ccccc1)c1ccccc1` registered a melting point of 140 to 143 °C.

On to `CCCCCCC(N)C(C)O` (stereo unspecified), for which the melting point fell in the range of 81 to 86 °C.

Regarding `O=C(O)Cc1cccc2c1N=C(c1ccccc1)CC2=O`, the melting point was in the range of 238 to 240 °C.

`COc1ccc2c(c1)CCC(Cc1ccccc1)C2=O` (stereo unspecified) came in with a melting point of 50 to 51 °C.

Turning to `O=C(O)CCc1oc(SC2CCCCC2)nc1-c1ccc(Cl)cc1`, the melting point is 136 to 137 °C.

On to `Fc1ccc2nc(-c3ccccc3)cc(OCC3CO3)c2c1` (racemic), for which the melting point fell in the range of 118 to 120 °C.

Turning to `C=CCOc1cc(-c2cc(=O)c3c(OCC=C)c(CC=C)c(OCC=C)cc3o2)ccc1OC`, the melting point is 107 °C.

With `CC1(C)C(=O)N(c2ccc(C#N)c(C(F)(F)F)c2)C(=O)N1CCCCO[N+](=O)[O-]`, the melting point is 74 to 75 °C.

`O=[N+]([O-])c1ccc(Oc2ccc(C3(c4ccc(Oc5ccc([N+](=O)[O-])c(O)c5)cc4)C4CC5CC(C4)CC3C5)cc2)cc1O` displayed a melting point of 248 to 250 °C.

Compound `CN(Cc1ccc(COOC(=O)NC(Cc2ccccc2)C(=O)O)cc1)c1ccccc1` (stereo unspecified) had a melting point of 69.6 to 70.1 °C.

As for `O=c1c2ccc(OCc3ccccc3)cc2[nH]c2c([N+](=O)[O-])ccc(Cl)c12`, the melting point was 198 to 202 °C.

As for `Oc1ccc(-c2ccc(O)c(Br)c2)cc1Br`, the melting point was in the range of 118 to 121 °C.

The compound `COc1ccc(C(=O)O)nc1C` showed a melting point of 183 °C.

Turning to `Nc1nc(=O)n(-c2ccsc2)cc1F`, the melting point lay in the range of 228 to 229 °C.

Regarding `CCCN(CCCCC12CC3CC(CC(C3)C1)C2)C(=O)NCCCc1ccncc1`, the melting point was found to be 110 °C.

For `COc1cccc2oc(C(=O)C34CC5CC(CC(C5)C3)C4)cc12`, the melting point lay in the range of 96 to 98 °C.

In turn, `COc1cc2c(cc1OC)N(C)C(=O)CN=C2c1cccc(C)c1` displayed a melting point of 119 to 121 °C.

Regarding `CCc1cc2c(cc1Sc1ccc(C(=O)O)cc1)C(C)(C)CCC2(C)C`, the melting point lay within 82 to 83 °C.

For `COc1cc2[nH]c3c(OC)c(OC)ccc3c2cc1OC`, the melting point lay in the range of 170 to 171 °C.

The compound `COc1ccc(I)c(OCC(O)CNCCc2ccc(OC)c(OC)c2)c1` (stereo unspecified) returned a melting point of 83 to 88 °C.

The compound `O=C(Cl)c1cnc(Cl)nc1-c1ccccc1` came in with a melting point of 42 °C.

In turn, `Nc1ncc(-c2ccc(=O)[nH]n2)c(-c2ccco2)n1` gave a melting point of 262 to 268 °C.

Compound `CC(C)(C)OC(=O)N1CCNC(C(=O)O)C1` (stereo unspecified) gave a melting point of 226 to 229 °C.

`Nc1ccc(C(=O)N2CCOCC2)cc1OCc1ccc(-c2ccccc2-c2nnnn2C(c2ccccc2)(c2ccccc2)c2ccccc2)cc1` showed a melting point of 95 to 105 °C.

Turning to `COc1ccc(-c2cc(=O)c3c(O)cc(O)c(-c4cc(-c5cc(=O)c6c(O)cc(OC)cc6o5)ccc4OC)c3o2)cc1`, the melting point fell in the range of 295 to 298 °C.

The compound `COC(=O)c1ccc(C)c(SC(=O)c2ccc3c(c2)C(C)(C)CCC3(C)C)c1` had a melting point of 120 °C.

In turn, `Cc1oc(NC(=O)CCl)c(C#N)c1C` had a melting point of 114 °C.

On to `CC(C)(C)C(NC(=O)c1ccc(Cl)cc1)Nc1c(Nc2cccnc2)c(=O)c1=O` (stereo unspecified), for which the melting point fell in the range of 257 to 258 °C.

`C[C@@H]1Cc2ccsc2[C@H](C)N1CCNS(=O)(=O)c1ccc(N)cc1` (relative stereo): the melting point lay in the range of 126 to 131 °C.

As to `CCOC(=O)c1ccc(N)c(C)c1`, the melting point was in the range of 76 to 77 °C.

The compound `CCOCCn1c(C)c(C2(c3ccc(N(C)C)cc3C)OC(=O)c3ccccc32)c2ccccc21` (stereo unspecified) registered a melting point of 170 to 171 °C.

In the case of `O=C(Nc1cccc2c1C(=O)N(CC(=O)N1CCC(CO)CC1)C2=O)c1ccc(Cl)s1`, the melting point came to 198 °C.

`O=S(=O)(c1ccccc1)N1CCN(CC(O)CCl)CC1` (stereo unspecified) registered a melting point of 136 to 137 °C.

In the case of `BrCCCCCCCCCCCCCCCCCCCCBr`, the melting point worked out at 62 °C.

The compound `COc1ccc2c(c1)C(=O)N(CCN(C)CCN1C(=O)c3cc(OC)ccc3C(C)(C)C1=O)C(=O)C2(C)C` gave a melting point of 150 to 151 °C.

Compound `CC(C)c1nc(-c2ncn3c2CN(C(=O)N2CCCC2)c2c(F)cccc2-3)no1` came in with a melting point of 169 to 170 °C.

`COc1ccc(-c2cnc3cc4cnn(Cc5ccccc5)c4cc3n2)cc1F` registered a melting point of 149 to 155 °C.

`O=C(N1C=CC2=C(CCC=C2)c2ccccc21)n1ccnc1` displayed a melting point of 189 to 190 °C.

With `COc1ccc(OC)c2c(N=[N+]=[N-])ccnc12`, the melting point was 106 °C.

Take `COc1ccc(COCc2nc(C(C)C)c(Sc3cc(Cl)cc(Cl)c3)n2CC(=O)c2ccccc2)cc1`: the melting point lay in the range of 205 to 211 °C.

In turn, `O=C1CCC(N2Cc3c(CNC(=O)c4cccc(Cl)c4)cccc3C2=O)C(=O)N1` (stereo unspecified) gave a melting point of 266 to 268 °C.

`CNC(=O)c1ccccc1Nc1nc(Nc2cc3c(cc2OC)NC(=O)CCC3(C)C)ncc1Cl` yielded a melting point of 197 to 199 °C.

For the compound `O=c1[nH]c2ccccc2c2cc(C(O)c3ccccc3)nn12` (stereo unspecified), the melting point was 231 to 233 °C.

Compound `CCOC(=O)C=Cc1ccc(C(C)(C)C)c(NC(=O)CC2c3ccccc3Oc3ccccc32)c1` displayed a melting point of 180 to 181 °C.

`COC(=O)NC1=NCC(c2ccccc2)CN1C` (stereo unspecified) returned a melting point of 176 to 177 °C.

`CC(CN(C)C)C(C#N)(c1ccccc1)c1ccccc1` (single isomer, unassigned; (-)): the melting point is 102 to 103 °C.

In the case of `CCCCC1=N/C(=C\c2c[nH]c3ncccc23)C(=O)N1C`, the melting point was in the range of 220 to 222 °C.

`COc1ccc2c(c1)N(CCCCl)c1cccc(S(C)(=O)=O)c1S2` showed a melting point of 122 to 124 °C.

As for `O=c1ccc(S(=O)(=O)n2cc(Cl)c3ccccc32)n[nH]1`, the melting point was > 220 °C.

`Cc1ccnc(Cl)c1C(N)=O` returned a melting point of 168 to 170 °C.

The compound `Fc1ccc(-c2[nH]c(C3CCN(Cc4ccccc4)CC3)nc2-c2ccncc2)cc1` yielded a melting point of 212 to 215 °C.

With `O=c1ccc(-c2ccsc2)n[nH]1`, the melting point was 169 to 171 °C.

On to `O=C(O)c1ccc(Cl)c(S(=O)(=O)c2ccccc2[N+](=O)[O-])c1`, for which the melting point lay in the range of 242 to 246 °C.

The compound `CCC1(CCCN2CCc3sccc3C2)C(=O)Nc2ccccc21` (stereo unspecified) had a melting point of 130 to 132 °C.

`C[C@H]1C[C@@](O)(c2cccc(S(=O)(=O)c3cc4c(cc3F)N(C)C(=O)CC4)c2)CCO1` came in with a melting point of 135 to 138 °C.

Consider `CSc1ccc(C(C#N)=NO)cc1SC`, for which the melting point lay in the range of 131 to 133 °C.

Consider `CN1CCN(c2ccc(Nc3ncc4ccc(-c5cccc6c5OCCO6)n4n3)cc2)CC1`, for which the melting point lay within 212 to 213 °C.

For `COc1ccccc1NC(=O)Oc1ccc2c(c1)N(Cc1ccccc1)CCC2`, the melting point stood at 125 °C.

`COc1ccc(Oc2c(N)cc(C(=O)O)cc2S(N)(=O)=O)cc1`: the melting point fell in the range of 260 to 261 °C.

On to `NNc1cc2c(nn1)CCN(C(=O)CCCc1ccccc1)C2`, for which the melting point is 203 to 205 °C.

As to `CCCC(Cc1ccc(OCCN2CCCCCC2)cc1)(C(=O)OCC)S(=O)(=O)c1ccc(OC)cc1` (stereo unspecified), the melting point is 55 °C.

For `O=C(NCCNCCNC(=O)OCc1ccccc1)OCc1ccccc1`, the melting point lay in the range of 73 to 75 °C.

With `O=C(O)CON=CCBr`, the melting point lay within 56 to 58 °C.

As for `COc1ccc(-c2ccc(N3CCCN(c4ccc(-c5ccc(OC)cc5)cn4)CC3)nc2)cc1`, the melting point was 254 to 256 °C.

`CC(C)(C)CC(C)(C)c1cc(N=Nc2cc([N+](=O)[O-])ccc2Cl)c(O)c(C(C)(C)c2ccccc2)c1` had a melting point of 153 to 156 °C.

`Oc1cccc2c1CC(n1cc[nH]c1=S)CC2` (stereo unspecified) returned a melting point of 274 to 276 °C.

In turn, `C=CCOc1ccc(C[C@@H](NC(C)=O)C(=O)O)cc1` displayed a melting point of 75 °C.

`Cc1ncccc1Cn1nnnc1-c1cc(Cl)ccc1Cl` registered a melting point of 172 to 174 °C.

In the case of `C1=C(c2nc(COc3ccc(CCCCn4cncn4)cc3)co2)CCc2ccccc21`, the melting point lay within 96 to 97 °C.

`O=C1CCC(O)(c2ccc(F)c(F)c2)CC1` had a melting point of 84 to 85 °C.

These data come from a melting point compilation (Tetko et al.; mined from patent text by program, amines drawn as free bases though some values may be those of a salt).
